From patent US4699921A, “Pharmaceuticals containing prostaglandin I2” (Mitsubishi Yuka Pharmaceutical Co., Ltd., priority 1984, dated 1987)
Where two headings read alike, the source gives them in different places.

What was measured:
[1] = tested on: Human platelet aggregation (ADP induced); test: Human platelet aggregation inhibiting effect (in vitro); type: cell-based; conditions: human PRP, ADP 2-10 μM, 37° C., one minute preincubation, read-out: Platelet aggregation inhibiting ratio (IC50)
Experimental: Platelet aggregation inhibiting effect
Bloods were sampled from healthy voluers (22-34 years old) with no administration of drug for 2 weeks or more early in the morning when they were hungry. By use of an injector filled with 5 ml of 3.8% sodium citrate solution, 50 ml of blood was sampled, immediately stirred by turning upside down and centrifuged at 200×g for 15 minutes. The supernatant was separated as the PRP (platelet rich plasma) and the residue further subjected to centrigugation at 2000×g for 15 minutes, followed by recovery of the supernatant as PPP (poor platelet plasma) which was provided for use in the experiment.
PRP (250 μ) was placed in a cuvette, 5 μof an 1% ethanol solution of the compound of the present invention or an 1% ethanol solution was added, and incubation was carried out at 37° C. for one minute. Then, an aggregation inducing agent (ADP) was added and the process of aggregation was recorded by Aggregometer (Sienco Co.). As the concentration of ADP, the minimum concentrations of ADP (2-10 μM) to give the maximum aggregation for respective platelets were employed. The inhibition percentage of platelet aggregation was calculated by the following formula:
Inhibition percentage=(A-B)/A×100
A: Maximum aggregation ratio during addition of solvent (1% ethanol solution)
B: Maximum aggregation ratio during addition of the compound of the present invention.
The platelet aggregation inhibiting effects of the compounds of the present invention are shown in terms of IC50 values in Table 6.

gastric acid secretion = test: Antiulcer effect (2): rat gastric acid inhibiting effect (pylorus ligature); type: in vivo, male Wistar rat; conditions: subcutaneous, 100 μg/kg, 4 hours after pylorus ligature; for Amount of gastric acid secreted: solvent 73.6
Experimental: Male wistar strain rats (weighing 250-280 g) were fasted for 18 hours subjected to peritoneotomy under ether anesthesia for ligature of pylorus, and after 4 hours under abstinence from food and water, gastric juice was sampled. The gastric juice was centrifuged at 3000 rpm for 10 minutes, and then the amount, pH and acidity of the gastric juice were measured. The acidity was measured by titration by means of an automatic titrating device (Toa Denpa Kogyo) with a 0.1N NaOH to pH 7.0 and calculating according to the following formula: [formula]
The gastric juice secretion inhibition percentage was calculated according to the following formula: [formula] A: Amount of gastric acid excreted in Control group B: Amount of gastric acid excreted in Drug group
The drugs to be tested were adminsistered subcutaneously immediately after pylorus ligature.

right femoral artery = test: Vasodilative effect (perfusion pressure of femoral artery in anesthetized dogs); type: in vivo, dog; conditions: intraarterial, 100 μg/kg
Experimental: Female and male adult dogs were anesthetized by intraveneous administeration of 30 mg/kg of sodium pentobarbital and fixed on their back positions. The right femoral artery was perfused at constant flow with the dog's own blood by means of a peristaltic pump (Harvard Co.). The perfusion pressure was measured with an electromanometer and systemic blood pressure was measured in the other femoral artery with a pressure transducer. As an anticoagulant, 500 U/kg of heparin sodium was intravenously administered.
The compound of the present invention was dissolved in 10% ethanol-90% physiological salt solution and administered into arterial blood through a thick rubber tube provided in the perfusion circuit. The vasodilative effect of the compound of the present invention is expressed by the change ratio of perfusion pressure after administration into the artery.

blood pressure = test: Hypotensive effect in anesthetized rats; type: in vivo, male Wistar rat; conditions: intravenous, 10 μg/kg
Experimental: Male wistar strain rats (weighing 240-290 g) were anesthetized by intraperitoneal administration of 50 mg/kg of sodium pentobarbital, and blood pressures were measured. The compound of the present invention was administered intravenously as a solution dissolved in 10 ethanol- 90% physiological salt solution. The hypotensive effect is expressed by the percent change of average blood pressure after intravenous administration (relative to that before administration).

gastric mucosa damage = test: Antiulcer effect (1): inhibition of hydrochloric acid induced gastric mucosa damage; type: in vivo, male SD rat; conditions: oral, 25 μg/kg, 30 minutes before 1 ml of 0.6N hydrochloric acid
Experimental: Male SD-strain rats (weighing 220-255 g) were fasted for 20 hours (water was given ad libitum) and, after further abstinence from food and water for 4 hours, the compound of the present invention was administered orally, followed further by oral administration of 1 ml of 0.6N hydrochloric acid 30 minutes later. One hour after administration of hydrochloric acid, the stomach was enucleated under chloroform anesthesia. The fluid in the stomach was discharged and 7.5 ml of a 1% formalin solution was injected into the stomach to fix the gastric mucosa. Then, the stomach was dissected along the greater curvature and the length of the gastric mucosa damage was measured under a steroscopic microscope. The compound of the present invention was dissolved in 5% ethanol-95% physiological salt solution and administered at a dose of 25 μg/kg in a volume of 5 ml/kg.
The antiulcer effect of the compound of the present invention was calculated by the following formula: [formula] l: length of gastric mucosa damage in the group to which the compound of the present invention is administered;
lo: length of gastric mucosa damage in the group of non-administration of drug.

SMILES | Gastric acid secretion Inhibition (gastric acid secretion) | Amount of gastric acid secreted (gastric acid secretion) | IC50 ([1]; Platelet) | other results
CCCC(C)C[C@H](O)/C=C/[C@H]1[C@H]2CC(C=CCCC(=O)O)=C[C@H]2C[C@H]1O (mixture of isomers) [Compound K, 3-(4'-carboxy-1'-butenyl)-6(S)-(3'(S)-hydroxy-5'(RS)-methyl-trans-1'-octenyl)-7(R)-hydroxy-(1S,5S)-cis-bicyclo[3.3.0]oct-2-ene] | 70.5% | 21.7 mEq/l | – | IC50 [1]: 2 nM
CCCCC(C)C[C@H](O)/C=C/[C@H]1[C@H]2CC(C=CCCC(=O)O)=C[C@H]2C[C@H]1O (mixture of isomers) [Compound M, 3-(4'-carboxy-1'-butenyl)-6(S)-(3'(S)-hydroxy-5'(RS)-methyl-trans-1'-nonenyl)-7(R)-hydroxy-(1S,5S)-cis-bicyclo[3.3.0]-oct-2-ene] | 73.5% | 19.5 mEq/l | – | IC50 [1]: 4 nM
CCCCC[C@H](O)/C=C/[C@@H]1[C@H]2CC(C=CCCC(=O)O)=C[C@H]2C[C@H]1O [Compound A] | – | – | 14 nM | –
O=C(O)CCC=CC1=C[C@H]2C[C@@H](O)[C@H](/C=C/[C@@H](O)C3CCCC3)[C@H]2C1 [Compound B] | – | – | 7 nM | –
CC#CCC(C)[C@H](O)/C=C/[C@@H]1[C@H]2CC(C=CCCC(=O)O)=C[C@H]2C[C@H]1O (some centres unmarked) [Compound C] | – | – | 0.8 nM | –
CC(C)=CCC[C@@H](C)C[C@H](O)/C=C/[C@@H]1[C@H]2CC(C=CCCC(=O)O)=C[C@H]2C[C@H]1O [Compound D] | – | – | 20 nM | –
O=C(O)CCC=CC1=C[C@H]2C[C@@H](O)[C@H](/C=C/[C@@H](O)C3CCCCC3)[C@H]2C1 [Compound E] | – | – | 5 nM | –
CCC#CCC(C)[C@H](O)/C=C/[C@@H]1[C@H]2CC(C=CCCC(=O)O)=C[C@H]2C[C@H]1O (stereo partly drawn) [Compound F, 3-(4'-carboxy-1'-butenyl)-6(S)-(3'(S)-hydroxy-4'(RS)-methyl-trans-1'-nonen-6'-ynyl)-7(R)-hydroxy-(1S,5S)-cis-bicyclo[3.3.0]oct-2-ene] | 81.8% | 13.4 mEq/l | 4 nM | –
CCC#CC(C)C[C@H](O)/C=C/[C@@H]1[C@H]2CC(C=CCCC(=O)O)=C[C@H]2C[C@H]1O (some centres unmarked) [Compound G] | – | – | 0.6 nM | –
CCCCCC(C)[C@H](O)/C=C/[C@@H]1[C@H]2CC(C=CCCC(=O)O)=C[C@H]2C[C@H]1O (stereo partly drawn) [Compound H, 3-(4'-carboxy-1'-butenyl)-6(S)-(3'(S)-hydroxy-4'(RS)-methyl-trans-1'-nonenyl-7(R)-hydroxy-1S,5S)-cis-bicyclo[3.3.0]oct-2-ene] | 89.9% | 7.4 mEq/l | 8 nM | –
O=C(O)CCC=CC1=C[C@H]2C[C@@H](O)[C@H](/C=C/[C@@H](O)CCc3ccccc3)[C@H]2C1 [Compound I, 3-(4'-carboxy-1'-butenyl)-6(S)-(3'(S)-hydroxy-5'-phenyl-trans-1'-pentenyl)-7(R)-hydroxy-(1S,5S)-cis-bicyclo[3.3.0]oct-2-ene] | 73.5% | 19.5 mEq/l | 80 nM | –
CCCCC(C)(C)[C@H](O)/C=C/[C@@H]1[C@H]2CC(C=CCCC(=O)O)=C[C@H]2C[C@H]1O [Compound J, 3-(4'-carboxy-1'-butenyl)-6(S)-(3'(S)-hydroxy-4',4'-dimethyl-trans-1'-octenyl)-7(R)-hydroxy-(1S,5S)-cis-bicyclo[3.3.0]oct-2-ene] | 18.1% | 60.3 mEq/l | 200 nM | –
CC(C1CCCCC1)[C@H](O)/C=C/[C@@H]1[C@H]2CC(C=CCCC(=O)O)=C[C@H]2C[C@H]1O (some centres unmarked) [Compound L] | 36.8% | 46.5 mEq/l | 300 nM | –
O=C(O)CCCC=C1C[C@H]2C[C@@H](O)[C@H](/C=C/[C@@H](O)C3CCCC3)[C@H]2C1 [OP-41483] | – | – | 9 nM | Perfusion pressure change (right femoral artery): -16%; Percent change of average blood pressure (blood pressure): -39%; Inhibition of gastric mucosa damage (gastric mucosa damage): -28.3%
CCCCC[C@H](O)/C=C/[C@H]1[C@H](O)CC(=O)[C@@H]1C/C=C\CCCC(=O)O [PGE2] | – | – | – | Inhibition of gastric mucosa damage (gastric mucosa damage): 61.1%
